≈ marks a conversion by molar mass, not a printed value. Ends that are not written are not given here.
What follows are molecules tested on E. coli ATCC 25922.
Format: cell-based, Escherichia coli
Procedure: The minimum inhibitory concentration (MIC) of Tritrp1 and its Trp-substituted analogs against E. coli ATCC 25922 was measured by the standard broth microdilution method. Bacteria (5 × 10^5 CFU/mL) were incubated overnight at 37 °C in Mueller-Hinton broth (MHB) and in the presence of peptides diluted in a two-fold concentration series ranging from 0.25–128 µM in a 96-well polypropylene plate. The reported MIC values correspond to the minimum peptide concentration where bacterial growth was not observed. After overnight incubation, 10 µL from the first three wells without bacterial growth for each peptide in the MIC plate were diluted 1:10^6 in MHB, and 100 µL of this dilution was plated in MHB-agar. After incubation overnight at 37 °C, the minimum bactericidal concentration (MBC) was reported as the minimum peptide concentration where no colony formation was detected.

Row | Molecule | MBC | MIC
1 | CC(C)C[C@H](NC(=O)[C@H](Cc1ccccc1)NC(=O)[C@@H]1CCCN1C(=O)[C@H](Cc1c[nH]c2ccccc12)NC(=O)[C@H](Cc1c[nH]c2ccccc12)NC(=O)[C@H](Cc1c[nH]c2ccccc12)NC(=O)[C@@H]1CCCN1C(=O)[C@H](Cc1ccccc1)NC(=O)[C@H](CCCNC(=N)N)NC(=O)[C@H](CCCNC(=N)N)NC(=O)[C@@H](N)C(C)C)C(=O)N[C@@H](CCCNC(=N)N)C(=O)N[C@@H](CCCNC(=N)N)C(N)=O [Tritrp1, reference compound] | 4 µM (≈ 7.61 µg/mL) | 4 µM (≈ 7.61 µg/mL)
2 | VRRFPAAAPFLRR-NH2 [A-Tritrp] | >128 µM | >128 µM
3 | VRRFPAAWPFLRR-NH2 [Peptide W67A] | 64 to 128 µM | 64 to 128 µM
4 | VRRFPAWAPFLRR-NH2 [Peptide W68A] | 64 to 128 µM | 64 to 128 µM
5 | VRRFPAWWPFLRR-NH2 [Peptide W6A] | 32 to 64 µM | 32 to 64 µM
6 | VRRFPWAAPFLRR-NH2 [Peptide W78A] | 64 to 128 µM | 64 to 128 µM
7 | VRRFPWAWPFLRR-NH2 [Peptide W7A] | 16 µM | 16 µM
8 | VRRFPWWAPFLRR-NH2 [Peptide W8A] | 8 µM | 8 µM
9 | VRRFPWWYPFLRR-NH2 [Peptide W8Y] | 4 µM | 4 µM
10 | VRRFPWYWPFLRR-NH2 [Peptide W7Y] | 8 µM | 8 µM
11 | VRRFPWYYPFLRR-NH2 [Peptide W78Y] | 16 µM | 16 µM
12 | VRRFPYWWPFLRR-NH2 [Peptide W6Y] | 16 µM | 16 µM
13 | VRRFPYWYPFLRR-NH2 [Peptide W68Y] | 16 µM | 16 µM
14 | VRRFPYYWPFLRR-NH2 [Peptide W67Y] | 32 µM | 32 µM
15 | VRRFPYYYPFLRR-NH2 [Y-Tritrp] | 16 to 32 µM | –
